The source made the active and inactive calls. Rule as the data show it, for most assays here: actives have a measured EC50 and inactives only a lower limit.
Columns and labels:
SN12K1 = experiment: cells; type: functional; conditions: Homo sapiens
P388 = experiment: cells; type: functional; conditions: Mus musculus
P388/ADR = experiment: cells; type: functional; conditions: Mus musculus
[1] = Luminescence Cell-Based Dose Confirmation HTS to Identify Activators of 5'UTR Stem-Loop Driven Alpha-Synuclein mRNA Translation in H4 Neuroglioblastoma Cells. [Related pubchem assays: 1829 (Project Summary), 1814 (Primary HTS)]; type: functional
[2] = Luminescence Cell-Based Dose Response HTS to Identify Activators of Luciferase Translation or Activity in H4 […] Cells. [Related pubchem assays: 1829 (Project Summary), 1814 (Primary HTS)]; type: functional
H4 = experiment: Luminescence Cell-Based Dose Response HTS to Identify Activators of 5'UTR Stem-Loop Driven Prion Protein mRNA Translation in H4 Neuroglioblastoma Cells. [Related pubchem assays: 1829 (Project Summary), 1814 (Primary HTS)]; type: functional; conditions: Homo sapiens
[3] = Luminescence Cell-Based Dose Confirmation HTS to Identify Inhibitors of Platelet Dense Granule Release. [Related pubchem assays: 1663 (Primary HTS), 1678 (Summary of Project)]; type: functional
[4] = biological target: Luciferin 4-monooxygenase (Photinus pyralis, UniProt P08659); experiment: firefly luciferase enzyme inhibitors, dose response, biochemical, luminescence (AID 1891)
Sequence of Luciferin 4-monooxygenase (P08659 whole entry): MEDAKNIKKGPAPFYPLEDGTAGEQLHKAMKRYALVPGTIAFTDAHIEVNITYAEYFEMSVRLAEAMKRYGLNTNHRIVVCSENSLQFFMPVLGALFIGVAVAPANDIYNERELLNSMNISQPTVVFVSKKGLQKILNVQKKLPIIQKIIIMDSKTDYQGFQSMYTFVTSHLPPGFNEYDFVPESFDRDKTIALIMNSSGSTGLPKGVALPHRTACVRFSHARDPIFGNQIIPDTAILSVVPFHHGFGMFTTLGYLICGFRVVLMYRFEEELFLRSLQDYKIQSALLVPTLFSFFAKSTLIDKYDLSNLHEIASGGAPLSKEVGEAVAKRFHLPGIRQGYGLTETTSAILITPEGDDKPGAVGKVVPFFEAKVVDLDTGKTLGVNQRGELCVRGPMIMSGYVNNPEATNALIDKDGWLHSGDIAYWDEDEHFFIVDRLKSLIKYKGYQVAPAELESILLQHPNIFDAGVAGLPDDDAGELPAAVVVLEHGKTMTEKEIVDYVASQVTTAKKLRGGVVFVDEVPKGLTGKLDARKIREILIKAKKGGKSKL

[5] = biological target: T1, Heat shock factor protein 1 (Mus musculus, UniProt P38532); experiment: HSF1 potentiators in luciferase reporter cells, confirmation, cell-based, NIH3T3, luminescence, dose retest (AID 435004); type: functional;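 also: stress induced by proteasome inhibitor MG132 added 30 min after compound; luciferase reporter driven by HSF1 response element in NIH3T3 cells; actives raise luminescence as potentiators of the MG132 stress response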
T1 sequence (P38532 whole entry): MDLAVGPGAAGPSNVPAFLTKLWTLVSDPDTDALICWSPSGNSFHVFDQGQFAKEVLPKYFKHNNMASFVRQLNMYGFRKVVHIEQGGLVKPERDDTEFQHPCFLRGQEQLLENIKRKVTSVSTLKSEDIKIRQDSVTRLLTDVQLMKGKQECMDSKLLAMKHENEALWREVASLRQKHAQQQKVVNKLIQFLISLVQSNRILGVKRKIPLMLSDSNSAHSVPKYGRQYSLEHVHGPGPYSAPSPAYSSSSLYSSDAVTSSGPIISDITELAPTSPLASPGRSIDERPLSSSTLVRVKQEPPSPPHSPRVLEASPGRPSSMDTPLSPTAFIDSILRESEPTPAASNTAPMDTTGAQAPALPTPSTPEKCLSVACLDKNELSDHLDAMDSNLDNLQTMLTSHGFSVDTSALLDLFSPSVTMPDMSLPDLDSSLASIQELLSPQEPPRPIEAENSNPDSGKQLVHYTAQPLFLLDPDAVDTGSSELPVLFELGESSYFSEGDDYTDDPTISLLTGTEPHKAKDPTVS

INS1 = experiment: beta cell apoptosis inhibitors, cytokine rescue, dose response, luminescence, retest (AID 449756); type: functional, cell-based; conditions: Rattus norvegicus;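 also: cell death triggered by IL-1 beta plus TNF-alpha plus IFN-gamma mixture; protective hits raise ATP signal compared with cytokine alone wells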

C=C1C[C@@H](O)C[C@@]2(C)C[C@@H]3OC(=O)C(=C)[C@@H]3C[C@H]12
GI50 (SN12K1): 12.3 µM (inactive) | GI50 (P388): 2.46 µM (inactive) | GI50 (P388/ADR): 2.2 µM (inactive)

CN1CCN(CC(=O)N(C)c2nc(-c3ccccc3)cs2)CC1
EC50 [1]: 1.12 µM (active) | EC50 [2]: 1.22 µM (active)

Cc1cc(O)c2c(c1O)C(=O)C13C(=C(O)C4C(O)C1C1C(O)C3C(O)=C3C(=O)c5c(O)cc(C)c(O)c5C(=O)C341)C2=O (centres undefined)
GI50 (SN12K1): 0.0506 µM (active) | GI50 (P388): < 0.01 µM (active) | GI50 (P388/ADR): 0.0461 µM (active)

O=C(Cn1ncc(N2CCOCC2)c(Br)c1=O)c1ccc(Cl)cc1
EC50 [1]: > 120 µM (not active) | EC50 (H4): 17 µM (active) | EC50 [2]: 7.93 µM (active)

COc1ccc(N2CCN(CC(=O)c3ccc(O)cc3O)CC2)cc1
EC50 [3]: > 112 µM (not active) | EC50 [4]: > 112 µM (not active)

CCOC(=O)c1cc(-c2ccccc2)nn1Cc1cc(CC)no1
EC50 [1]: 12.4 µM (active) | EC50 (H4): 89.1 µM (active) | EC50 [2]: 7.3 µM (active)

O=C(Nc1ccc(N2CCOCC2)cc1)c1nc2ccccc2s1
EC50 [3]: 5.93 µM (active) | EC50 [4]: 16.4 µM (active)

CCOC(=O)c1c(NC(=O)CSc2nc3ccccc3o2)sc(C)c1C
EC50 [5]: > 260 µM (inactive)

Oc1nc2cc3c(cc2cc1CN(CCc1ccccc1)Cc1nnnn1C1CCCC1)OCCO3
EC50 [3]: > 112 µM (not active) | EC50 [4]: > 112 µM (not active)

COC(=O)C1C(O)C(C)C(O)C(C)(O)/C=C\C=C(C)C(=O)Nc2c(C)c(OC(C)=O)c3c(c2O)C(=O)C(C)=C2OCOC(=C23)C(C)=CC(C)(O)C(O)C(C)C1OC(C)=O (centres undefined)
GI50 (SN12K1): 37 µM (inactive) | GI50 (P388): 30.3 µM (inactive) | GI50 (P388/ADR): 41.5 µM (inactive)

COc1cccc(NC(=O)CSc2nc3c4ccccc4nc-3c(O)n2C)c1
EC50 [5]: > 260 µM (inactive)

COc1cc(C)c(S(=O)(=O)N2CCN=C2c2ccccc2)cc1C
EC50 [5]: > 260 µM (inactive)

CN1N=C(C(=O)N2CCc3c([nH]c4ccccc34)C2c2ccccc2Cl)CCC1=O (centres undefined)
EC50 [1]: 13.2 µM (active) | EC50 (H4): 9.56 µM (active) | EC50 [2]: 10.8 µM (active)

CN(C)CCNC(=O)c1cc(Cl)cc2cc3ccccc3nc12
GI50 (SN12K1): 0.378 µM (active) | GI50 (P388): 0.128 µM (active) | GI50 (P388/ADR): 0.0622 µM (active)

CC(=O)OCC1OC(Nc2ncc(-c3ccc(C)cc3)s2)C(OC(C)=O)C(OC(C)=O)C1OC(C)=O (centres undefined)
GI50 (SN12K1): 46.8 µM (inactive) | GI50 (P388): 28.4 µM (inactive) | GI50 (P388/ADR): 25.2 µM (inactive)

CCOC(=O)C(C)/C(C)=N/NC(=O)c1cc2ccccc2cc1O (centres undefined)
AC50 (INS1): 14.8 µM (active)

CCOc1cccc2c1OC(c1cc(OC)c(OC)c(OC)c1)N1N=C(c3ccc(C)o3)CC21 (centres undefined)
EC50 [1]: 32 µM (active) | EC50 (H4): 8.82 µM (active) | EC50 [2]: 28.3 µM (active)

CCOC(=O)/C=C/c1c[nH]c(C(=O)OCC)c1
GI50 (SN12K1): > 100 µM (inactive) | GI50 (P388): > 100 µM (inactive) | GI50 (P388/ADR): > 100 µM (inactive)

NCCCC(N)(C(=O)O)C(F)F (centres undefined) [EFLORNITHINE]
GI50 (SN12K1): 1400 µM (inactive) | GI50 (P388): 275 µM (inactive) | GI50 (P388/ADR): > 1840 µM (inactive)

CCn1c(=O)cc(N2CCN(Cc3ccccc3)CC2)[nH]c1=O
EC50 [3]: > 112 µM (not active) | EC50 [4]: > 112 µM (not active)

Cc1ccccc1C(=O)NCCOc1ccccc1Cl
EC50 [5]: 25.5 µM (active)

Cc1ccc(N2C(=O)CCC2(C#N)c2ccccc2)cc1 (centres undefined)
EC50 [5]: > 260 µM (inactive)

From ChEMBL document CHEMBL1201862, “PubChem BioAssay data set” (2004)
